Tests used:
C57B16/J mice = test: Intraperitoneal Chemerin15-mouse alone (no zymosan): peritoneal cell recruitment and TNFα; assay type: in vivo; details: 0.32 ng/kg i.p., 4 h
Experimental: Male C57B16/J mice (8-12 weeks) were injected intra-peritoneally with 0.5 ml PBS or 0.5 ml Chemerin15-mouse (0.32 ng/kg). After 4 hours three animals per treatment group were sacrificed and peritoneal cavities washed with 5 ml PBS-3 mM EDTA. Total cell counts were obtained using Trypan blue exclusion test. For determination of cellular composition (Neutrophils vs mononuclear phagocytes), cells were blocked with 2.4G2 anti-FcgRII/III mAB for 5 mins and stained with PE-conjugated anti-mouse Ly-6G and FITC-conjugated anti-mouse 7/4 mAB for 10 mins. Cells were fixed in 1% formaldehyde prior to FACS analysis with CellQuest software. Gates were constructed around two populations, the neutrophils (N; 7/4^high, Ly-6G^high) and inflammatory monocytes (Mo; 7/4^high, Ly-6G^low). C15 refer to Chemerin15-mouse. p<0.01 ** relative to PBS-treated. Ns refers to no statistically significant difference p>0.05.

peritoneal macrophages = test: Zymosan recognition / phagocytosis by macrophages (FITC-zymosan, FACS); assay type: cell-based, mouse
Experimental: For in vitro recognition of zymosan by macrophages, peritoneal exudate cells were isolated by lavage with ice-cold 2 mM EDTA in PBS from mice that had been treated intraperitoneally 4 d before with Biogel beads (2% w/v). Macrophages were plated in 24-well plates at a density of 2.5×10^5 cells per well in Optimem medium. Cells were washed three times with medium before the addition of Fluorescein isothiocyanate (FITC)-labeled zymosan (Invitrogen) in recognition assays at macrophage/particle ratios of 10:1 in the presence of either 0.1 pM, 1 pM, 10 pM, 100 pM or 1 nM Chemerin15. Vehicle=control sample without Chemerin15. FITC-zymosan uptake was followed by FACS analysis and is expressed as a relative recognition index i.e the ratio of %® cells uptaking zymosan×the ratio of geometric means C15 treated macrophages/geometric mean of macrophages treated with vehicle.

[1] = test system: C57B16/J mice, zymosan-induced peritonitis; test: Zymosan-induced peritonitis in mice; assay type: in vivo, mouse; details: single i.p. dose; 4 h post-zymosan
[2] = test system: Murine peritoneal macrophages (PMΦ); test: Macrophage cytokine mRNA levels by qRT-PCR (IL-10, TGFβ), normalized to HPRT; assay type: cell-based, mouse; details: chemerin
Experimental: FIGS. 1A-F—FIGS. 1A and 1B illustrate that Chemerin140 suppresses production of inflammatory mediators by macrophages in a proteolysis dependent fashion. Supernatants from macrophages or activated macrophages (treated with 100 ng/ml LPS and 20 ng/ml interferon gamma were assayed for cytokine expression using Luminex and ELISA assays. Cells were incubated in the presence or absence of recombinant murine chemerin or dexamethasone at the indicated doses and in the absence or presence of the protease inhibitor leupeptin ([…]). FIG. 1C—Macrophage cytokine mRNA levels were quantitated by qRT-PCR (IL-10, TGFβ) and normalized to HPRT. FIG. 1D—PMΦ were pre-treated with chemerin (0.1-1 pM)±pertussis toxin (PTX; 200 ng/ml) prior to LPS/IFNγ-challenge. FIG. 1E—PMΦ were pre-treated with chemerin (1 pM) for 1 h±PTX and then stimulated with LPS/IFNγ for 4 h, 8 h or 15 h. ***, p<0.001; **, p<0.01; *, p<0.05 relative to LPS/IFNγ-treated samples. ###, p<0.001; ##, p<0.01; #, p<0.05 relative to chemerin-treated samples. […]
Total RNA was extracted using Qiagen RNeasy kits, reverse transcribed and subjected to qRT-PCR using the Sybr-Green method. Data was analysed using the 2-ΔΔCT method (Livak, K. J. & Schmittgen T. D. (2001), Methods 25:402-408).

| Molecule | Monocyte or neutrophil migration after peptide alone (FIG. 9) (C57B16/J mice) | Peritoneal TNFα after peptide alone (FIG. 9) (C57B16/J mice) | Macrophage phagocytosis of zymosan (FIG. 15) (peritoneal macrophages; 0.1 pM-1 nM, FITC-zymosan) | Concentration of greatest induction of macrophage phagocytosis (peritoneal macrophages; tested 0.1 pM-1 nM) [pM] | Lowest dose with significant anti-inflammatory effects (FIG. 14B) [1] [pg/mouse] | Induction of IL-10 mRNA expression (FIG. 1C) [2] [%] | Induction of TGFβ mRNA expression (FIG. 1C) [2] [%] |
| --- | --- | --- | --- | --- | --- | --- | --- |
| AGEDPHGYFLPGQFA (listed as Mus sp.) [C15] | does not cause monocyte or neutrophil migration | significant reduction in TNFα | induces macrophage phagocytosis of zymosan | 10 | 4 | – | – |
| Chemerin: 140 amino acid mouse Chemerin protein of Sequence ID no: 34 (protein, listed as Mus sp.) TVGTEPELSETQRRSLQVALEEFHKHPPVQLAFQEIGVDRAEEVLFSAGTFVRLEFKLQQTNCPKKDWKKPECTIKPNGRRRKCLACIKMDPKGKILGRIVHCPILKQGPQDPQELQCIKIAQAGEDPHGYFLPGQFAFS | – | – | – | – | – | 89 | 54 |

From patent US8906865B2, “Treatment of inflammation and/or endotoxic shock” (ISIS Innovation Limited, priority 2007, dated 2014)
